Laboratory results: publication PMC5218480 (PLoS ONE, 2017)

Tested on: MV-4-11 cells
Experiment: Gene expression microarray analysis (Affymetrix PrimeView) and GSEA
Type: cell-based, human
Design: RFU PODN (11730768_x_at) / Fold change /veh PODN (11730768_x_at) / RFU LINC00158 (11744669_a_at) / Fold change /veh LINC00158 (11744669_a_at) / RFU DUSP10 (11751237_a_at) / Fold change /veh DUSP10 (11751237_a_at) / RFU ID3 (11757404_x_at) / Fold change /veh ID3 (11757404_x_at) / RFU PLEKHG5 (11737974_s_at) / Fold change /veh PLEKHG5 (11737974_s_at) / RFU LRRC4B (11730491_at) / Fold change /veh LRRC4B (11730491_at) / RFU GIMAP4 (11747438_a_at) / Fold change /veh GIMAP4 (11747438_a_at) / RFU KRT8 (11758183_x_at) / Fold change /veh KRT8 (11758183_x_at) / RFU CNN1 (11734310_a_at) / Fold change /veh CNN1 (11734310_a_at) / RFU VPS37D (11726825_at) / Fold change /veh VPS37D (11726825_at) / RFU C10orf10 (11716522_x_at) / Fold change /veh C10orf10 (11716522_x_at) / RFU KIR2DL2 /// KIR2DL4 /// KIR2DL5A /// KIR2DL5B /// KIR2DS1 /// KIR2DS2 /// KIR2DS3 /// KIR2DS4 /// KIR3DL3 /// KIR3DL3 /// KIR3DS1 (11738374_at) / Fold change /veh KIR2DL2 /// KIR2DL4 /// KIR2DL5A /// KIR2DL5B /// KIR2DS1 /// KIR2DS2 /// KIR2DS3 /// KIR2DS4 /// KIR3DL3 /// KIR3DL3 /// KIR3DS1 (11738374_at) / RFU C1QL1 (11718748_at) / Fold change /veh C1QL1 (11718748_at) / RFU TMPRSS4 (11747572_a_at) / Fold change /veh TMPRSS4 (11747572_a_at) / RFU HAMP (11756126_x_at) / Fold change /veh HAMP (11756126_x_at) / RFU RNFT2 (11725882_a_at) / Fold change /veh RNFT2 (11725882_a_at) / RFU NR4A2 (11747474_a_at) / Fold change /veh NR4A2 (11747474_a_at) / RFU ABCC12 (11746883_a_at) / Fold change /veh ABCC12 (11746883_a_at) / RFU TMEM136 (11760407_x_at) / Fold change /veh TMEM136 (11760407_x_at) / RFU CLDN22 /// WWC2 (11732394_at) / Fold change /veh CLDN22 /// WWC2 (11732394_at) / RFU HLA-DPB1 (11760878_x_at) / Fold change /veh HLA-DPB1 (11760878_x_at) / RFU SPINT1 (11716480_a_at) / Fold change /veh SPINT1 (11716480_a_at) / RFU GAP43 (11754022_s_at) / Fold change /veh GAP43 (11754022_s_at) / RFU A4GNT (11735810_at) / Fold change /veh A4GNT (11735810_at) / RFU PRB3 (11715151_x_at) / Fold change /veh PRB3 (11715151_x_at) / RFU TUBB4B (11761932_at) / Fold change /veh TUBB4B (11761932_at) / RFU CAPN14 (11732068_a_at) / Fold change /veh CAPN14 (11732068_a_at) / RFU TMCC2 (11721928_a_at) / Fold change /veh TMCC2 (11721928_a_at) / RFU IRGQ (11745062_a_at) / Fold change /veh IRGQ (11745062_a_at) / RFU FAM174B (11720279_a_at) / Fold change /veh FAM174B (11720279_a_at) / RFU TMPRSS4 (11748680_a_at) / Fold change /veh TMPRSS4 (11748680_a_at) / RFU FAM212B (11763350_a_at) / Fold change /veh FAM212B (11763350_a_at) / RFU PLEKHG5 (11743358_a_at) / Fold change /veh PLEKHG5 (11743358_a_at) / RFU ZSCAN30 (11745921_a_at) / Fold change /veh ZSCAN30 (11745921_a_at) / RFU CMKLR1 (11741424_a_at) / Fold change /veh CMKLR1 (11741424_a_at) / RFU LOC101060620 /// MAPK8IP1 (11723275_at) / Fold change /veh LOC101060620 /// MAPK8IP1 (11723275_at) / RFU SPTSSB (11747773_x_at) / Fold change /veh SPTSSB (11747773_x_at) / RFU PRSS12 (11739890_at) / Fold change /veh PRSS12 (11739890_at) / RFU BIN1 (11741810_x_at) / Fold change /veh BIN1 (11741810_x_at) / RFU WNT11 (11732464_a_at) / Fold change /veh WNT11 (11732464_a_at) / RFU C10orf10 (11716521_a_at) / Fold change /veh C10orf10 (11716521_a_at) / RFU C5orf56 (11738089_at) / Fold change /veh C5orf56 (11738089_at) / RFU CYB561 (11721691_x_at) / Fold change /veh CYB561 (11721691_x_at) / RFU ANKRD19P (11752326_a_at) / Fold change /veh ANKRD19P (11752326_a_at) / RFU OR2T12 /// OR2T33 /// OR2T8 (11738714_s_at) / Fold change /veh OR2T12 /// OR2T33 /// OR2T8 (11738714_s_at) / RFU VCAN (11748164_a_at) / Fold change /veh VCAN (11748164_a_at) / RFU JSRP1 (11732532_at) / Fold change /veh JSRP1 (11732532_at) / RFU KRTAP10-11 (11738290_x_at) / Fold change /veh KRTAP10-11 (11738290_x_at) / RFU MYO3A (11730013_a_at) / Fold change /veh MYO3A (11730013_a_at) / RFU EBF3 (11725865_a_at) / Fold change /veh EBF3 (11725865_a_at) / RFU CAMK2N1 (11719241_x_at) / Fold change /veh CAMK2N1 (11719241_x_at) / RFU C5orf56 (11738088_a_at) / Fold change /veh C5orf56 (11738088_a_at) / RFU OLFML3 (11715873_a_at) / Fold change /veh OLFML3 (11715873_a_at) / RFU LOC100653217 /// NTM (11731650_a_at) / Fold change /veh LOC100653217 /// NTM (11731650_a_at) / RFU MAPK11 (11762145_a_at) / Fold change /veh MAPK11 (11762145_a_at) / RFU FIZ1 (11724087_x_at) / Fold change /veh FIZ1 (11724087_x_at) / RFU OASL (11726364_x_at) / Fold change /veh OASL (11726364_x_at) / RFU SOX15 (11748057_x_at) / Fold change /veh SOX15 (11748057_x_at) / RFU CD79A (11719716_a_at) / Fold change /veh CD79A (11719716_a_at) / RFU HIST1H1D (11736915_at) / Fold change /veh HIST1H1D (11736915_at) / RFU CASKIN2 (11723855_a_at) / Fold change /veh CASKIN2 (11723855_a_at) / RFU LOC730098 (11760151_x_at) / Fold change /veh LOC730098 (11760151_x_at) / RFU OR4N2 (11742367_at) / Fold change /veh OR4N2 (11742367_at) / RFU PRRT2 (11749266_a_at) / Fold change /veh PRRT2 (11749266_a_at) / RFU SNX32 (11753110_a_at) / Fold change /veh SNX32 (11753110_a_at) / RFU CDHR5 (11726645_a_at) / Fold change /veh CDHR5 (11726645_a_at) / RFU RCAN1 (11760418_a_at) / Fold change /veh RCAN1 (11760418_a_at) / RFU FAM167A (11723789_a_at) / Fold change /veh FAM167A (11723789_a_at) / RFU FAM26E (11764081_at) / Fold change /veh FAM26E (11764081_at) / RFU ISYNA1 (11749810_s_at) / Fold change /veh ISYNA1 (11749810_s_at) / RFU ACY1 (11761880_at) / Fold change /veh ACY1 (11761880_at) / RFU 11764098_at / Fold change /veh 11764098_at / RFU SAMD14 (11745864_x_at) / Fold change /veh SAMD14 (11745864_x_at) / RFU NPB (11741838_a_at) / Fold change /veh NPB (11741838_a_at) / RFU TMPRSS6 (11731388_a_at) / Fold change /veh TMPRSS6 (11731388_a_at) / RFU KRTAP10-2 (11738614_at) / Fold change /veh KRTAP10-2 (11738614_at) / RFU ARHGAP8 /// PRR5-ARHGAP8 (11727945_x_at) / Fold change /veh ARHGAP8 /// PRR5-ARHGAP8 (11727945_x_at) / RFU KRTAP5-7 /// NADSYN1 (11734609_at) / Fold change /veh KRTAP5-7 /// NADSYN1 (11734609_at) / RFU RASL12 (11751679_a_at) / Fold change /veh RASL12 (11751679_a_at) / RFU CDKN2B (11736163_a_at) / Fold change /veh CDKN2B (11736163_a_at) / RFU PRF1 (11729649_at) / Fold change /veh PRF1 (11729649_at) / RFU, ZNF638 /// ZNF638-IT1 / Fold change vs veh, ZNF638 /// ZNF638-IT1 / RFU, PANK3 / Fold change vs veh, PANK3 / RFU, SH3YL1 / Fold change vs veh, SH3YL1 / RFU, ZEB2 / Fold change vs veh, ZEB2 / RFU, NRIP1 / Fold change vs veh, NRIP1 / RFU, PTTG1IP / Fold change vs veh, PTTG1IP / RFU, CAPN2 / Fold change vs veh, CAPN2 / RFU, MED14 / Fold change vs veh, MED14 / RFU, SNORA58 / Fold change vs veh, SNORA58 / RFU, C1orf63 / Fold change vs veh, C1orf63 / RFU, LRRFIP1 / Fold change vs veh, LRRFIP1 / RFU, NDUFAF7 / Fold change vs veh, NDUFAF7 / RFU, SLC12A2 / Fold change vs veh, SLC12A2 / RFU, IBTK / Fold change vs veh, IBTK / RFU, ESF1 / Fold change vs veh, ESF1 / Fold change vs veh, TMEM50B / RFU, TAOK1 / Fold change vs veh, TAOK1 / RFU, ACBD3 / Fold change vs veh, ACBD3 / RFU, TMA16 / Fold change vs veh, TMA16 / RFU, RWDD3 / Fold change vs veh, RWDD3 / RFU, BCAT1 / Fold change vs veh, BCAT1 / RFU, EDEM3 / Fold change vs veh, EDEM3 / RFU, TMEM33 / Fold change vs veh, TMEM33 / RFU, WDR75 / Fold change vs veh, WDR75 / RFU, AHCTF1 / Fold change vs veh, AHCTF1 / RFU, TFRC / Fold change vs veh, TFRC / RFU, ZDHHC17 / Fold change vs veh, ZDHHC17 / RFU, NOM1 / Fold change vs veh, NOM1 / RFU, ARL8B / Fold change vs veh, ARL8B / RFU, ZBTB11 / Fold change vs veh, ZBTB11 / RFU, TAMM41 / Fold change vs veh, TAMM41 / RFU, KIAA1704 /// LOC100996395 / Fold change vs veh, KIAA1704 /// LOC100996395 / RFU, ING1 / Fold change vs veh, ING1 / RFU, TRMT61B / Fold change vs veh, TRMT61B / RFU, FUBP3 / Fold change vs veh, FUBP3 / RFU, TP53 / Fold change vs veh, TP53 / RFU, TNKS2 / Fold change vs veh, TNKS2 / RFU, ZFP14 / Fold change vs veh, ZFP14 / RFU, ACTR2 / Fold change vs veh, ACTR2 / RFU, PPP3R1 / Fold change vs veh, PPP3R1 / RFU, PIK3R1 / Fold change vs veh, PIK3R1 / RFU, HNRNPA1 / Fold change vs veh, HNRNPA1 / RFU, RNF170 / Fold change vs veh, RNF170 / RFU, ZNF28 / Fold change vs veh, ZNF28 / RFU, RNGTT / Fold change vs veh, RNGTT / RFU, OGT / Fold change vs veh, OGT / RFU, BRD1 / Fold change vs veh, BRD1 / RFU, MARS / Fold change vs veh, MARS / RFU, ZNF655 / Fold change vs veh, ZNF655 / RFU, FAHD1 / Fold change vs veh, FAHD1 / RFU, BDP1 / Fold change vs veh, BDP1 / RFU, LRRCC1 / Fold change vs veh, LRRCC1 / RFU, ARID1A / Fold change vs veh, ARID1A / RFU, ZNF146 / Fold change vs veh, ZNF146 / RFU, ZNF330 / Fold change vs veh, ZNF330 / RFU, GPN3 / Fold change vs veh, GPN3 / RFU, C9orf123 / Fold change vs veh, C9orf123 / RFU, N4BP2L2 / Fold change vs veh, N4BP2L2 / RFU, ARFIP1 / Fold change vs veh, ARFIP1 / RFU, FAM179B / Fold change vs veh, FAM179B / RFU, BCL10 / Fold change vs veh, BCL10 / RFU, UHRF1BP1L / Fold change vs veh, UHRF1BP1L / RFU, BET1 / Fold change vs veh, BET1 / RFU, CNOT2 / Fold change vs veh, CNOT2 / RFU, ZNF268 / Fold change vs veh, ZNF268 / Fold change vs veh, ZNF507 / RFU, DGCR2 / Fold change vs veh, DGCR2 / RFU, WDSUB1 / Fold change vs veh, WDSUB1 / Fold change vs veh, HSP90B1 /// MIR3652 / RFU, ADSS / Fold change vs veh, ADSS / RFU, GK / Fold change vs veh, GK / RFU, ZNF148 / Fold change vs veh, ZNF148 / RFU, TAF9 / Fold change vs veh, TAF9 / RFU, SLC1A5 / Fold change vs veh, SLC1A5 / RFU, SLMO2 / Fold change vs veh, SLMO2 / RFU, ABCC4 / Fold change vs veh, ABCC4 / RFU, LOC101060439 /// RAP1B / Fold change vs veh, LOC101060439 /// RAP1B / RFU, RFX7 / Fold change vs veh, RFX7 / RFU, GTPBP10 / Fold change vs veh, GTPBP10 / RFU, CNEP1R1 / Fold change vs veh, CNEP1R1 / RFU, BIVM-ERCC5 /// ERCC5 / Fold change vs veh, BIVM-ERCC5 /// ERCC5 / RFU, ILF3 / Fold change vs veh, ILF3 / RFU 11762660_at / Fold change /veh 11762660_at / RFU VCAN (11757783_s_at) / Fold change /veh VCAN (11757783_s_at) / RFU DDX43 (11728927_at) / Fold change /veh DDX43 (11728927_at) / RFU KRT8 (11758188_x_at) / Fold change /veh KRT8 (11758188_x_at) / RFU NKD1 (11759106_at) / Fold change /veh NKD1 (11759106_at) / RFU SRD5A1 (11742802_a_at) / Fold change /veh SRD5A1 (11742802_a_at) / RFU TPSAB1 /// TPSB2 (11721975_s_at) / Fold change /veh TPSAB1 /// TPSB2 (11721975_s_at) / RFU GSTM3 (11746129_a_at) / Fold change /veh GSTM3 (11746129_a_at) / RFU IL23R (11737362_x_at) / Fold change /veh IL23R (11737362_x_at) / RFU TMEM51 (11727254_a_at) / Fold change /veh TMEM51 (11727254_a_at) / RFU PIWIL2 (11732686_x_at) / Fold change /veh PIWIL2 (11732686_x_at) / RFU ORM1 (11744905_x_at) / Fold change /veh ORM1 (11744905_x_at) / RFU CCDC152 (11743942_at) / Fold change /veh CCDC152 (11743942_at) / RFU ECM1 (11717891_a_at) / Fold change /veh ECM1 (11717891_a_at) / RFU IL23R (11748794_a_at) / Fold change /veh IL23R (11748794_a_at) / RFU TNFAIP8L3 (11732012_x_at) / Fold change /veh TNFAIP8L3 (11732012_x_at) / RFU MBOAT4 (11741988_at) / Fold change /veh MBOAT4 (11741988_at) / RFU 11764193_at / Fold change /veh 11764193_at / RFU TMEM53 (11763286_at) / Fold change /veh TMEM53 (11763286_at) / RFU MAGEB2 (11727129_at) / Fold change /veh MAGEB2 (11727129_at) / RFU TMEM200A (11744735_a_at) / Fold change /veh TMEM200A (11744735_a_at) / RFU CCDC152 (11751479_a_at) / Fold change /veh CCDC152 (11751479_a_at) / RFU FAM211A (11726209_a_at) / Fold change /veh FAM211A (11726209_a_at) / RFU RGS16 (11746705_a_at) / Fold change /veh RGS16 (11746705_a_at) / RFU VCAN (11755009_s_at) / Fold change /veh VCAN (11755009_s_at) / RFU RHOB (11743442_s_at) / Fold change /veh RHOB (11743442_s_at) / RFU RGS16 (11720943_a_at) / Fold change /veh RGS16 (11720943_a_at) / RFU RGS16 (11720944_at) / Fold change /veh RGS16 (11720944_at) / RFU, VPS4B / Fold change vs veh, VPS4B / RFU, CREB1 / Fold change vs veh, CREB1 / RFU, DNAJC13 / Fold change vs veh, DNAJC13 / RFU, GNAQ / Fold change vs veh, GNAQ / RFU, CDK5R1 / Fold change vs veh, CDK5R1 / RFU, ZRANB3 / Fold change vs veh, ZRANB3 / RFU, CUL4A / Fold change vs veh, CUL4A / RFU, CCNY / Fold change vs veh, CCNY / RFU, UFL1 / Fold change vs veh, UFL1 / RFU, COG3 / Fold change vs veh, COG3 / RFU, DIAPH2 / Fold change vs veh, DIAPH2 / RFU, SKA2 / Fold change vs veh, SKA2 / RFU, AFF3 / Fold change vs veh, AFF3 / RFU, LMF1 / Fold change vs veh, LMF1 / RFU, IPO11 / Fold change vs veh, IPO11 / RFU, DFFB / Fold change vs veh, DFFB / RFU, FOXP1 / Fold change vs veh, FOXP1 / RFU, CARD8 / Fold change vs veh, CARD8 / RFU, STRN3 / Fold change vs veh, STRN3 / RFU, ADK / Fold change vs veh, ADK / RFU, RASSF2 / Fold change vs veh, RASSF2 / RFU, WIPF1 / Fold change vs veh, WIPF1 / RFU, LARP1B / Fold change vs veh, LARP1B / RFU, RASA1 / Fold change vs veh, RASA1 / RFU, RB1 / Fold change vs veh, RB1 / RFU, PPFIA1 / Fold change vs veh, PPFIA1 / RFU, MAT2A / Fold change vs veh, MAT2A / RFU, CCT5 / Fold change vs veh, CCT5 / RFU, WDR92 / Fold change vs veh, WDR92 / RFU, CUX1 / Fold change vs veh, CUX1 / RFU, TTC7A / Fold change vs veh, TTC7A / RFU, TMEM135 / Fold change vs veh, TMEM135 / RFU, DEPTOR / Fold change vs veh, DEPTOR / RFU, CPM / Fold change vs veh, CPM / RFU, DNAJB6 / Fold change vs veh, DNAJB6 / RFU, CACNA2D3 / Fold change vs veh, CACNA2D3 / RFU, DTX4 / Fold change vs veh, DTX4 / RFU, TFCP2 / Fold change vs veh, TFCP2 / RFU, GMCL1 /// GMCL1P1 / Fold change vs veh, GMCL1 /// GMCL1P1 / RFU, AEBP2 / Fold change vs veh, AEBP2 / RFU, SNHG1 /// SNORD22 /// SNORD25 /// SNORD26 /// SNORD27 /// SNORD28 /// SNORD29 /// SNORD31 / Fold change vs veh, SNHG1 /// SNORD22 /// SNORD25 /// SNORD26 /// SNORD27 /// SNORD28 /// SNORD29 /// SNORD31 / Fold change (Aza/veh), C12orf56 (ProbeSet 11735607_a_at) / Fold change (ACY-1035/veh), C12orf56 (ProbeSet 11735607_a_at) / Fold change (Aza/veh), FGFR1OP (ProbeSet 11751329_s_at) / Fold change (ACY-1035/veh), FGFR1OP (ProbeSet 11751329_s_at) / Fold change (Aza/veh), VPS36 (ProbeSet 11739960_a_at) / Fold change (ACY-1035/veh), VPS36 (ProbeSet 11739960_a_at) / RFU SYPL1 (11715823_x_at) / Fold change /veh SYPL1 (11715823_x_at) / RFU IGFBP7 (11715501_s_at) / Fold change /veh IGFBP7 (11715501_s_at) / RFU REEP3 (11722064_at) / Fold change /veh REEP3 (11722064_at) / RFU IGLL1 (11728026_x_at) / Fold change /veh IGLL1 (11728026_x_at): dose or concentration left out as unconfirmed
Settings: MV-4-11 cells, 48 hours

## Nc1ncn([C@@H]2O[C@H](CO)[C@@H](O)[C@H]2O)c(=O)n1 [azacitidine]
  RFU EBF3 (11725865_a_at): 64.76 RFU
